Data published in patent US20160083357A1, “NOVEL TETRAZOLONE DERIVATIVES” (Hoffmann-La Roche Inc., priority 2013, published 2016).
Where two headings read alike, the source gives them in different places.

Experiments:
[1] = molecular target: T1, human CB2 receptors (Homo sapiens, UniProt P34972); assay: cAMP assay, human CB2; format: cell-based
T1 construct: expressed in transfected cells; host or cells: CHO cells
Protocol: (§1) CHO cells expressing human CB1 or CB2 receptors are seeded 17-24 hours prior to the experiment 50.000 cells per well in a black 96 well plate with flat clear bottom (Corning Costar #3904) in DMEM (Invitrogen No. 31331), lx HT supplement, with 10% fetal calf serum and incubated at 5% CO2 and 37° C. in a humidified incubator. The growth medium was exchanged with Krebs Ringer Bicarbonate buffer with 1 mM IBMX and incubated at 30° C. for 30 min. Compounds were added to a final assay volume of 100 μl and incubated for 30 min at 30° C. Using the cAMP-Nano-TRF detection kit the assay (Roche Diagnostics) was stopped by the addition of 50 μl lysis reagent (Tris, NaCl, 1.5% Triton X100, 2.5% NP40, 10% NaN3) and 50 μl detection solutions (20 μM mAb Alexa700-cAMP 1:1, and 48 μM Ruthenium-2-AHA-cAMP) and shaken for 2 h at room temperature. The time-resolved energy transfer is measured by a TRF reader (Evotec Technologies GmbH), equipped with a ND:YAG laser as excitation source. The plate is measured twice with the excitation at 355 nm and at the emission with a delay of 100 ns and a gate of 100 ns, total exposure time 10 s at 730 (bandwidth 30 nm) or 645 nm (bandwidth 75 nm), respectively. The FRET signal is calculated as follows: FRET=T730-Alexa730-P(T645-B645) with P=Ru730-B730/Ru645-B645, where T730 is the test well measured at 730 nM, T645 is the test well measured at 645 nm, B730 and B645 are the buffer controls at 730 nm and 645 nm, respectively. cAMP content is determined from the function of a standard curve spanning from 10 μM to 0.13 nM cAMP.
(§2) EC50 values were determined using Activity Base analysis (ID Business Solution, Limited). The EC50 values for a wide range of cannabinoid agonists generated from this assay were in agreement with the values published in the scientific literature.

[2] = molecular target: T2, human CB1 receptors (Homo sapiens, UniProt P21554); assay: cAMP assay, human CB1; format: cell-based
T2 construct: expressed in transfected cells; host or cells: CHO cells
T2 sequence (P21554 whole entry): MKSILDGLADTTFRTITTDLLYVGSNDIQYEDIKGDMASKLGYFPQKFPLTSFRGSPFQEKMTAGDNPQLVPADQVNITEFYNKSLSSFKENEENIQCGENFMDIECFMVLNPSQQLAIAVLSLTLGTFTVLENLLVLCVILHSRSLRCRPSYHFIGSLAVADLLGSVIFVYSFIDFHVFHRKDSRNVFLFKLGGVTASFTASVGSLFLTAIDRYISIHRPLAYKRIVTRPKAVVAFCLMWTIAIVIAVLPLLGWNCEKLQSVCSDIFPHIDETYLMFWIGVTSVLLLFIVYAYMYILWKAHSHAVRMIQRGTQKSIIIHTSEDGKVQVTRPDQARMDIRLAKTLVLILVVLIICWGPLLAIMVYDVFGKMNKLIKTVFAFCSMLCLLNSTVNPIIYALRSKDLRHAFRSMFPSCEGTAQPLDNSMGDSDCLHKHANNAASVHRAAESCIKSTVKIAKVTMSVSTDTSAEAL
Protocol: as §1, §2

[3] = functional cAMP assay, CHO cells expressing human CB2, read-out: Ec50: CB2 - hu cAMP
[4] = functional cAMP assay, CHO cells expressing human CB1, read-out: Ec50: CB1 - hu cAMP

T1 sequence (P34972 whole entry): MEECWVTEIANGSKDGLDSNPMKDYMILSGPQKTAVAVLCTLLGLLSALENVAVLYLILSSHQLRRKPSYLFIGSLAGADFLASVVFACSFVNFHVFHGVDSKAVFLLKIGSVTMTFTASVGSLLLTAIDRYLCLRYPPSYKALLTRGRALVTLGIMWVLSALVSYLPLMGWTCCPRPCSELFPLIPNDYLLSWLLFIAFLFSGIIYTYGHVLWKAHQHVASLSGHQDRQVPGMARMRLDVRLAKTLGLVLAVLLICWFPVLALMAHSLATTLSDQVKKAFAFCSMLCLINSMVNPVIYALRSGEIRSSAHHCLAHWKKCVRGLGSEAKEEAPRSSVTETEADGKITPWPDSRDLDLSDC

Compound	EC50 [1, 3]	EC50 [2, 4]	EC50 [1]	EC50 [2]
COC(=O)C1(NC(=O)OC(C)(C)C)CCN(C(=O)n2nnn(-c3cccc(F)c3)c2=O)CC1 [Example 62, 4-tert-Butoxycarbonylamino-1-[4-(3-fluoro-phenyl)-5-oxo-4,5-dihydro-tetrazole-1-carbonyl]-piperidine-4-carboxylic acid methyl ester]	61.4 nM	> 10000 nM		
CC(=O)N[C@@H]1CCN(C(=O)n2nnn(-c3cccc(Cl)c3)c2=O)C1 [Example 65, N—{(R)-1-[4-(3-Chloro-phenyl)-5-oxo-4,5-dihydro-tetrazole-1-carbonyl]-pyrrolidin-3-yl}-acetamide]	15 nM	> 10000 nM		
CC(=O)N[C@@H]1CCN(C(=O)n2nnn(-c3ccc(Cl)cc3)c2=O)C1 [Example 67, N—{(R)-1-[4-(4-Chloro-phenyl)-5-oxo-4,5-dihydro-tetrazole-1-carbonyl]-pyrrolidin-3-yl}-acetamide]	14.6 nM	> 10000 nM		
CC(=O)N[C@H]1CCN(C(=O)n2nnn(-c3cccc(Cl)c3)c2=O)C1 [Example 68, N—{(S)-1-[4-(3-Chloro-phenyl)-5-oxo-4,5-dihydro-tetrazole-1-carbonyl]-pyrrolidin-3-yl}-acetamide]	39.5 nM	> 10000 nM		
CCN(C(C)=O)C1CCN(C(=O)n2nnn(-c3cccc(OC(F)(F)F)c3)c2=O)C1 (stereo not shown) [Example 72, N-Ethyl-N-{1-[5-oxo-4-(3-trifluoromethoxy-phenyl)-4,5-dihydro-tetrazole-1-carbonyl]-pyrrolidin-3-yl}-acetamide]	27 nM	> 10000 nM		
CCN(C(C)=O)C1CCN(C(=O)n2nnn(-c3ccc(Cl)cc3)c2=O)C1 (stereo not shown) [Example 73, N-{1-[4-(4-Chloro-phenyl)-5-oxo-4,5-dihydro-tetrazole-1-carbonyl]-pyrrolidin-3-yl}-N-ethyl-acetamide]	10.8 nM	> 10000 nM		
Cc1cc(C2CCCN2C(=O)n2nnn(-c3cccc(Cl)c3)c2=O)on1 (stereo not shown) [Example 74, 1-(3-Chloro-phenyl)-4-[2-(3-methyl-isoxazol-5-yl)-pyrrolidine-1-carbonyl]-1,4-dihydro-tetrazol-5-one]	9.7 nM	> 10000 nM		
CC1(C)CCN(C(=O)n2nnn(-c3cccc(OC(F)(F)F)c3)c2=O)CC1 [Example 78, 1-(4,4-Dimethyl-piperidine-1-carbonyl)-4-(3-trifluoromethoxy-phenyl)-1,4-dihydro-tetrazol-5-one]	1.5 nM	> 10000 nM		
CCN(CCOC)C(=O)n1nnn(-c2cccc(Cl)c2)c1=O [Example 80, 4-(3-Chloro-phenyl)-5-oxo-4,5-dihydro-tetrazole-1-carboxylic acid ethyl-(2-methoxy-ethyl)-amide]			2.4 nM	> 10000 nM
CCN(CCOC)C(=O)n1nnn(-c2cccc(OC(F)(F)F)c2)c1=O [Example 81, 5-Oxo-4-(3-trifluoromethoxy-phenyl)-4,5-dihydro-tetrazole-1-carboxylic acid ethyl-(2-methoxy-ethyl)-amide]	4 nM	> 10000 nM		
CCN(CCOC)C(=O)n1nnn(-c2ccc(Cl)cc2)c1=O [Example 82, 4-(4-Chloro-phenyl)-5-oxo-4,5-dihydro-tetrazole-1-carboxylic acid ethyl-(2-methoxy-ethyl)-amide]			3.3 nM	> 10000 nM
COCCN(C(=O)n1nnn(-c2cccc(Cl)c2)c1=O)C(C)C [Example 83, 4-(3-Chloro-phenyl)-5-oxo-4,5-dihydro-tetrazole-1-carboxylic acid isopropyl-(2-methoxy-ethyl)-amide]			5.3 nM	> 10000 nM
COCCN(C(=O)n1nnn(-c2ccc(Cl)cc2)c1=O)C(C)C [Example 85, 4-(4-Chloro-phenyl)-5-oxo-4,5-dihydro-tetrazole-1-carboxylic acid isopropyl-(2-methoxy-ethyl)-amide]			7.9 nM	> 10000 nM
COCCCN(C)C(=O)n1nnn(-c2cccc(OC(F)(F)F)c2)c1=O [Example 87, 5-Oxo-4-(3-trifluoromethoxy-phenyl)-4,5-dihydro-tetrazole-1-carboxylic acid (3-methoxy-propyl)-methyl-amide]			3.6 nM	> 10000 nM

The remaining compounds from weak to strong by EC50 [1, 3], led by results:

EC50 [1, 3]	EC50 [2, 4]	Compound	EC50 [1]	EC50 [2]
67 nM	> 10000 nM	O=C(CN1CCN(C(=O)n2nnn(-c3cccc(OC(F)(F)F)c3)c2=O)CC1)N1CCOCC1 [Example 90, 1-[4-(2-Morpholin-4-yl-2-oxo-ethyl)-piperazine-1-carbonyl]-4-(3-trifluoromethoxy-phenyl)-1,4-dihydro-tetrazol-5-one]		
32.1 nM	> 10000 nM	CC(=O)N[C@H]1CCN(C(=O)n2nnn(-c3ccc(Cl)cc3)c2=O)C1 [Example 70, N—{(S)-1-[4-(4-Chloro-phenyl)-5-oxo-4,5-dihydro-tetrazole-1-carbonyl]-pyrrolidin-3-yl}-acetamide]		
28.5 nM	> 10000 nM	Cc1cc(C2CCCN2C(=O)n2nnn(-c3cccc(OC(F)(F)F)c3)c2=O)on1 (stereo not shown) [Example 75, 1-[2-(3-Methyl-isoxazol-5-yl)-pyrrolidine-1-carbonyl]-4-(3-trifluoromethoxy-phenyl)-1,4-dihydro-tetrazol-5-one]		
20.4 nM	> 10000 nM	CC(=O)N[C@@H]1CCN(C(=O)n2nnn(-c3cccc(OC(F)(F)F)c3)c2=O)C1 [Example 66, N—{(R)-1-[5-Oxo-4-(3-trifluoromethoxy-phenyl)-4,5-dihydro-tetrazole-1-carbonyl]-pyrrolidin-3-yl}-acetamide]		
18.2 nM	> 10000 nM	CC(=O)N[C@H]1CCN(C(=O)n2nnn(-c3cccc(OC(F)(F)F)c3)c2=O)C1 [Example 69, N—{(S)-1-[5-Oxo-4-(3-trifluoromethoxy-phenyl)-4,5-dihydro-tetrazole-1-carbonyl]-pyrrolidin-3-yl}-acetamide]		
16.9 nM	> 10000 nM	O=C(CN1CCN(C(=O)n2nnn(-c3cccc(Cl)c3)c2=O)CC1)N1CCOCC1 [Example 89, 1-(3-Chloro-phenyl)-4-[4-(2-morpholin-4-yl-2-oxo-ethyl)-piperazine-1-carbonyl]-1,4-dihydro-tetrazol-5-one]		
16.7 nM	> 10000 nM	CCN(C(C)=O)C1CCN(C(=O)n2nnn(-c3cccc(Cl)c3)c2=O)C1 (stereo not shown) [Example 71, N-{1-[4-(3-Chloro-phenyl)-5-oxo-4,5-dihydro-tetrazole-1-carbonyl]-pyrrolidin-3-yl}-N-ethyl-acetamide]		
9.5 nM	> 10000 nM	COCCN(C(=O)n1nnn(-c2cccc(OC(F)(F)F)c2)c1=O)C(C)C [Example 84, 5-Oxo-4-(3-trifluoromethoxy-phenyl)-4,5-dihydro-tetrazole-1-carboxylic acid isopropyl-(2-methoxy-ethyl)-amide]		
7.4 nM	> 10000 nM	Cc1cc(C2CCCN2C(=O)n2nnn(-c3ccc(Cl)cc3)c2=O)on1 (stereo not shown) [Example 76, 1-(4-Chloro-phenyl)-4-[2-(3-methyl-isoxazol-5-yl)-pyrrolidine-1-carbonyl]-1,4-dihydro-tetrazol-5-one]		
2.5 nM	> 10000 nM	O=C(N1CCC2(CCOC2)CC1)n1nnn(-c2cccc(F)c2)c1=O [Example 64, 1-(3-Fluoro-phenyl)-4-(2-oxa-8-aza-spiro[4.5]decane-8-carbonyl)-1,4-dihydro-tetrazol-5-one]		
1.9 nM	> 10000 nM	COCCCN(C)C(=O)n1nnn(-c2ccc(Cl)cc2)c1=O [Example 88, 4-(4-Chloro-phenyl)-5-oxo-4,5-dihydro-tetrazole-1-carboxylic acid (3-methoxy-propyl)-methyl-amide]		
1.8 nM	> 10000 nM	CC1(C)CCCN(C(=O)n2nnn(-c3cccc(F)c3)c2=O)C1 [Example 63, 1-(3,3-Dimethyl-piperidine-1-carbonyl)-4-(3-fluoro-phenyl)-1,4-dihydro-tetrazol-5-one]		
1 nM	> 10000 nM	COCCCN(C)C(=O)n1nnn(-c2cccc(Cl)c2)c1=O [Example 86, 4-(3-Chloro-phenyl)-5-oxo-4,5-dihydro-tetrazole-1-carboxylic acid (3-methoxy-propyl)-methyl-amide]		
0.9 nM	> 10000 nM	CC1(C)CCN(C(=O)n2nnn(-c3ccc(Cl)cc3)c2=O)CC1 [Example 79, 1-(4-Chloro-phenyl)-4-(4,4-dimethyl-piperidine-1-carbonyl)-1,4-dihydro-tetrazol-5-one]		
0.6 nM	> 10000 nM	CC1(C)CCN(C(=O)n2nnn(-c3cccc(Cl)c3)c2=O)CC1 [Example 77, 1-(3-Chloro-phenyl)-4-(4,4-dimethyl-piperidine-1-carbonyl)-1,4-dihydro-tetrazol-5-one]		
